According to US10993439B2, “Mesoionic imidazopyridines as insecticides” (BAYER AKTIENGESELLSCHAFT, priority 2017, dated 2021):

Columns and labels:
Myzus persicae [1] = assay: Myzus persicae oral test; type: in vivo; details: application rate 4 ppm; mixed population of green peach aphid; after 5 days
Procedure: Solvent: 100 parts by weight of acetone
The plates are then sealed with parafilm which can be pierced by a mixed population of the green peach aphid (Myzus persicae) located in a second microtiter plate in order to take up the solution.
(§1) After 5 days, the efficacy in % is determined. 100% means that all the aphids have been killed; 0% means that none of the aphids have been killed.

[2] = log P by HPLC on reversed-phase column (EEC directive 79/831 Annex V.A8); type: physicochemical; details: reversed-phase column (C18), 43° C., calibration with unbranched alkan-2-ones
Procedure: The log P values reported in the tables and preparation examples above were determined in accordance with EEC directive 79/831 Annex V.A8 by HPLC (High Performance Liquid Chromatography) using a reversed-phase column (C18). Temperature 43° C. The calibration is effected with unbranched alkan-2-ones (having 3 to 16 carbon atoms), for which the log P values are known.

Diabrotica balteata = Diabrotica balteata spray test; type: in vivo; details: application rate 160 μg/well; beetle larvae on germinated wheat grains; after 7 days
Procedure: (§2) Solvents: 78 parts by weight of acetone • • 1.5 parts by weight of dimethylformamide
(§3) Emulsifier: alkylaryl polyglycol ether
(§4) To produce a suitable preparation of active compound, 1 part by weight of active compound is dissolved using the stated parts by weight of solvent and made up with water containing an emulsifier concentration of 1000 ppm until the desired concentration is attained. To produce further test concentrations, the preparation is diluted with emulsifier-containing water.
Preswollen wheat grains (Triticum aestivum) are incubated in a multiwell plate filled with agar and a little water for one day (5 seed grains per well). The germinated wheat grains are sprayed with an active compound preparation of the desired concentration. Subsequently, each well is infested with 10-20 Diabrotica balteata beetle larvae.
After 7 days, the efficacy in % is determined. 100% means that all wheat plants have grown as in the untreated non-infested control; 0% means that no wheat plant has grown.

Ctenocephalides felis = Ctenocephalides felis in vitro contact test with adult cat fleas; type: in vivo; details: application rate 5 μg/cm^2 (=500 g of ai/ha), after 48 h
Procedure: For the coating of the test tubes, 9 mg of active compound are first dissolved in 1 ml of acetone p.a. and then diluted to the desired concentration with acetone p.a. 250 μl of the solution are distributed homogeneously on the inner walls and the base of a 25 ml test tube by turning and rocking on an orbital shaker (rocking rotation at 30 rpm for 2 h). With 900 ppm active compound solution and internal surface 44.7 cm^2, given homogeneous distribution, an area-based dose of 5 μg/cm^2 is achieved.
After the solvent has evaporated off, the tubes are populated with 5-10 adult cat fleas (Ctenocephalides felis), sealed with a perforated plastic lid and incubated in a horizontal position at room temperature and ambient humidity. After 48 h, efficacy is determined. To this end, the tubes are stood upright and the fleas are knocked to the base of the tube. Fleas which remain motionless at the base or are moved in an uncoordinated manner are considered to be dead or moribund.
100% efficacy means that all the fleas were dead or moribund. 0% efficacy means that no fleas were harmed.

Myzus persicae [3] = assay: Myzus persicae spray test; type: in vivo; details: application rate 500 g/ha; Chinese cabbage leaf discs, all stages of green peach aphid; after 5 days
Procedure: as §2, §3, §4
Discs of Chinese cabbage leaves (Brassica pekinensis) infested by all stages of the green peach aphid (Myzus persicae) are sprayed with an active compound preparation of the desired concentration.
as §1

Row | SMILES | chromatographic logP [2] | further results
1 | COC(=O)C(=O)c1c([O-])n(CC(F)(F)F)c2cccc[n+]12 [I-051, 3-(2-Methoxy-2-oxoacetyl)-1-(2,2,2-trifluoroethyl)imidazo[1,2-a]pyridin-4-ium-2-olate] | 1.18 | efficacy (aphids killed) (Myzus persicae [1]): 100%
2 | O=C(c1c([O-])n(CC(F)(F)F)c2cccc[n+]12)C(F)(F)F [I-047, 3-(2,2,2-trifluoroacetyl)-1-(2,2,2-trifluoroethyl)imidazo[1,2-a]pyridin-4-ium-2-olate] | 1.79 | efficacy (wheat plants grown as in untreated non-infested control) (Diabrotica balteata): 100%; efficacy (fleas dead or moribund) (Ctenocephalides felis): 80%
3 | Cc1ccc[n+]2c(C(=O)C(F)(F)F)c([O-])n(CCC#N)c12 [I-027, 1-(2-Cyanoethyl)-8-methyl-3-(2,2,2-trifluoroacetyl)imidazo[1,2-a]pyridin-4-ium-2-olate] | 1.35 | –
4 | COC(=O)c1c([O-])n(CCC#N)c2cccc[n+]12 [1-(2-cyanoethyl)-3-methoxycarbonylimidazo[1,2-a]pyridin-4-ium-2-olate] | 0.39 | –
5 | N#CCCn1c([O-])c(C(=O)CCl)[n+]2ccccc12 [I-084, 3-(2-Chloroacetyl)-1-(2-cyanoethyl)imidazo[1,2-a]pyridin-4-ium-2-olate] | 0.8 | –
6 | CC1(OC(=O)C(=O)c2c([O-])n(CCC#N)c3cccc[n+]23)CC1 [I-089, 1-(2-Cyanoethyl)-3-[2-(1-methylcyclopropoxy)-2-oxo-acetyl]imidazo[1,2-a]pyridin-4-ium-2-olate] | 1.33 | efficacy (aphids killed) (Myzus persicae [3]): 90%
7 | Cc1ccc[n+]2c(C(=O)CCl)c([O-])n(CCC#N)c12 [I-095, 3-(2-Chloroacetyl)-1-(2-cyanoethyl)-8-methyl-imidazo[1,2-a]pyridin-4-ium-2-olate] | 0.8 | –
8 | N#CCCn1c([O-])c(C(=O)c2cccc(C(F)(F)F)c2)[n+]2ccccc12 [I-004, 1-(2-Cyanoethyl)-3-[3-(trifluoromethyl)benzoyl]imidazo[1,2-a]pyridin-4-ium-2-olate] | 1.35 | efficacy (aphids killed) (Myzus persicae [1]): 100%
9 | CO/N=C/C(=O)c1c([O-])n(CCC#N)c2cccc[n+]12 [I-094, 1-(2-Cyanoethyl)-3-[(2E)-2-methoxyiminoacetyl]imidazo[1,2-a]pyridin-4-ium-2-olate] | 0.73 | efficacy (aphids killed) (Myzus persicae [1]): 100%
10 | COC(=O)c1c([O-])n(CC(F)(F)F)c2cccc[n+]12 [3-methoxycarbonyl-1-(2,2,2-trifluoroethyl)imidazo[1,2-a]pyridin-4-ium-2-olate] | 1.01 | –
11 | N#CCCn1c([O-])c(C(=O)Nc2c(Cl)cccc2Cl)[n+]2ccccc12 [I-016, 1-(2-Cyanoethyl)-3-[(2,6-dichlorophenyl)carbamoyl]imidazo[1,2-a]pyridin-4-ium-2-olate] | 1.81 | efficacy (aphids killed) (Myzus persicae [3]): 100%; efficacy (fleas dead or moribund) (Ctenocephalides felis): 100%
